Entries after “also recorded” stand apart in the source; their conditions may differ. Like-named read-outs stand apart in the source and are kept apart here.
Legend:
[1] = system: normal human dermal fibroblasts (NHDFs) stimulated with TGF-β1; experiment: Cell viability in TGF-β1 induced normal human dermal fibroblasts; format: cell-based; details: for Cell Viability: 48 hours, 50 ng/mL TGF-β1
Description: For these assays cells were grown for 48 hours in the presence of vehicle control, sitaxentan, and bosentan. The appropriate assay reagents and measuring techniques were used as indicated herein. Normal human dermal fibroblast cells (LLCT FC0024 lot 03869_ fibroblast) were seeded to confluence in 96 well plates in 10% fetal bovine serum (FBS) Dulbecco's modified eagle medium (DMEM). The cells were washed to remove the FBS, and serum free media was added overnight (O/N). The cells were then stimulated with 50 ng/mL TGF-β1 and treated. For the cell viability assay: 20 μl of the Viability Reagent (Promega, Cat #G6320) containing both GF-AFC Substrate and bis-AAF-R110 Substrate, for measuring live cell viability, was added and briefly mixed. The plates for the different assays were then incubated for 30 minutes at 37° C. […] Data were analyzed using GraphPad Prism 7. Six to nine replicates were run for each sample.

[2] = system: normal human dermal fibroblasts (NHDFs) stimulated with TGF-β1; experiment: Cell cytotoxicity in TGF-β1 induced normal human dermal fibroblasts; format: cell-based; details: for Cell Cytotoxicity: 48 hours, 50 ng/mL TGF-β1; for Cytotoxicity, result in words: compared with vehicle control and between compounds
Description: The effect of sitaxentan on cell viability, cell cytotoxicity, and apoptosis was measured in an assay using normal human dermal fibroblasts induced with TGF-β1 into a profibrotic phenotype. For these assays cells were grown for 48 hours in the presence of vehicle control, sitaxentan, and bosentan. The appropriate assay reagents and measuring techniques were used as indicated herein.
normal human dermal fibroblast cells (LLCT FC0024 lot 03869_ fibroblast) were seeded to confluence in 96 well plates in 10% fetal bovine serum (FBS) Dulbecco's modified eagle medium (DMEM).
The cells were washed to remove the FBS, and serum free media was added overnight (O/N).
The cells were then stimulated with 50 ng/mL TGF-β1 and treated.
For the cell cytotoxicity assay:
20 μl of the Cytotoxicity Reagent (Promega, Cat #G6320) containing both GF-AFC Substrate and bis-AAF-R110 Substrate, for measuring dead cells (cytotoxicity), was added and briefly mixed.
The plates for the different assays were then incubated for 30 minutes at 37° C.
Fluorescence was measured at: 400Ex/505Em (Viability) and 485Ex/520Em (Cytotoxicity)
Data were analyzed using GraphPad Prism 7.
Six to nine replicates were run for each sample.

[3] = system: normal human dermal fibroblasts (NHDFs) stimulated with TGF-β1; experiment: Apoptosis (Caspase-Glo 3/7) in TGF-β1 induced normal human dermal fibroblasts; format: cell-based; details: for Apoptosis: 48 hours, 50 ng/mL TGF-β1; for Apoptosis, result in words: after treatment, compared with vehicle control and between compounds
Description: For these assays cells were grown for 48 hours in the presence of vehicle control, sitaxentan, and bosentan. The appropriate assay reagents and measuring techniques were used as indicated herein. Normal human dermal fibroblast cells (LLCT FC0024 lot 03869_ fibroblast) were seeded to confluence in 96 well plates in 10% fetal bovine serum (FBS) Dulbecco's modified eagle medium (DMEM). The cells were washed to remove the FBS, and serum free media was added overnight (O/N). The cells were then stimulated with 50 ng/mL TGF-β1 and treated. For the apoptosis assay: 100 μl of Caspase-Glo® 3/7 Reagent (Promega, Cat #G6320), for the apoptosis assay, was added and briefly mixed. The plate was incubated for 30 minutes at room temperature prior to measurement of luminescence Data were analyzed using GraphPad Prism 7. Six to nine replicates were run for each sample.

[4] = system: primary normal human adult melanocytes; experiment: Melanin content in melanocytes; format: cell-based; details: for Melanin Content (absorbance at 400 nm): 24 hours
Description: (§1) The effect of sitaxentan on human melanocytes was measured. For these assays cells were grown for 24 hours in the presence of vehicle control, sitaxentan, and bosentan. The appropriate assay reagents and measuring techniques were used as indicated herein. Melanocytes, from either Caucasian or African American donors, were grown to confluence in 6-well tissue culture plates using LLCT DermaLife Ma complete medium and treated with compounds for 24 hours. Treated cells were removed from the plate with 0.25% trypsin for 10 minutes and then centrifuged at 0.4 g for 5 minutes. The resulting cell pellet was resuspended in 50 μL of 1M NaOH/10% DMSO solution. The resultant suspension was vortexed for 30 seconds. The suspension was then baked in a drying oven at 80° C. for 1 hour. The suspension was vortexed again for 30 seconds and then transferred to a black half-area 96-well plate and read in a UV/VIS spectrophotometer at 400 nm. Data were analyzed using GraphPad Prism 7.

[5] = system: primary normal human adult melanocytes; experiment: Melanin content in melanocytes; format: cell-based; details: for Melanin Content (absorbance at 400 nm): 24 hours; remark: listed apart in the source
Description: as §1

[6] = in vivo; cited from earlier work
[7] = cited from earlier work
[8] = target: T1, endothelin-A (ET-A) receptor (Homo sapiens, UniProt P25101); details: cited from earlier work
T1 sequence (P25101 21-427): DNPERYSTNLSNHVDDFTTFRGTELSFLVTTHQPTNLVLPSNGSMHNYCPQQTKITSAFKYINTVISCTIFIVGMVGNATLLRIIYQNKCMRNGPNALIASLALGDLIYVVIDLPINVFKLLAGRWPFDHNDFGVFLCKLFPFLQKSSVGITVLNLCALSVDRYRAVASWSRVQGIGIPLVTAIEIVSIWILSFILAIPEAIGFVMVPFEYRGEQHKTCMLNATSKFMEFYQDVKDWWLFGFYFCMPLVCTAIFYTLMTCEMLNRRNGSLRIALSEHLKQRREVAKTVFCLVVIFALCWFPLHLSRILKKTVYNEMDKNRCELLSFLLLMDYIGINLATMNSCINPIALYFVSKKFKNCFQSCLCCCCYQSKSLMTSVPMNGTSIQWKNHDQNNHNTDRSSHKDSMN

Row | SMILES | Cell Viability ([1]; 1 μM) [RFUs] | Cell Viability ([1]; 3 μM) [RFUs] | Cell Viability ([1]; 10 μM) [RFUs] | Cell Viability ([1]; 30 μM) [RFUs] | Cell Viability ([1]; 100 μM) [RFUs] | Cell Cytotoxicity ([2]; 1 μM) [RFUs] | Cell Cytotoxicity ([2]; 3 μM) [RFUs] | Cell Cytotoxicity ([2]; 10 μM) [RFUs] | Cell Cytotoxicity ([2]; 30 μM) [RFUs] | Cell Cytotoxicity ([2]; 100 μM) [RFUs] | Cytotoxicity, result in words [2] | Apoptosis ([3]; 1 μM) [RLUs] | Apoptosis ([3]; 3 μM) [RLUs] | Apoptosis ([3]; 10 μM) [RLUs] | Apoptosis ([3]; 30 μM) [RLUs] | Apoptosis ([3]; 100 μM) [RLUs] | Apoptosis, result in words [3] | Effect on melanin content, result in words [4] | Melanin Content (absorbance at 400 nm) ([4]; 30 μM) | Melanin Content (absorbance at 400 nm) ([4]; 100 μM) | further results
1 | COc1ccccc1Oc1c(NS(=O)(=O)c2ccc(C(C)(C)C)cc2)nc(-c2ncccn2)nc1OCCO [bosentan] | 5406.8 | 5548.5 | 5521.2 | 5537.0 | 5584.3 | 4256.9 | 3954.2 | 3764.0 | 4607.5 | 3929.0 | neither bosentan nor sitaxentan was significantly more cytotoxic than the vehicle control; also recorded: significantly more cytotoxic than sitaxentan | 39366.8 | 38639.8 | 38586.7 | 42825.2 | 43330.7 | elevated | no effect on melanin content | 0.633 | 0.703 | Effect on melanin content, result in words [5]: no effect on melanin content; Melanin Content (absorbance at 400 nm) ([5]; 30 μM): 0.511; Melanin Content (absorbance at 400 nm) ([5]; 100 μM): 0.497
2 | Cc1cc2c(cc1CC(=O)c1sccc1S(=O)(=O)Nc1onc(C)c1Cl)OCO2 [sitaxentan, N-(4-Chloro-3-methyl-5-isoxazolyl)-2-[(2-methyl-4,5-methylenedioxyphenyl)-acetyl]thiophene-3-sulfonamide] | 5678.3 | 5639.0 | 5600.5 | 5250.8 | 5171.0 | 4643.9 | 5058.3 | 4741.7 | 3837.5 | 2911.3 | neither bosentan nor sitaxentan was significantly more cytotoxic than the vehicle control | 37593.4 | 39162.8 | 39512.0 | 46053.5 | 51050.2 | elevated; also recorded: significantly more potent effect than bosentan | superior to bosentan in reducing the melanin content; also recorded: significantly more effective than a vehicle control at reducing melanin content; also recorded: significantly decreased melanin content | 0.579 | 0.544 | Toxicity (cell viability), result in words ([1]; concentrations up to 100 μM): no significant toxicity was observed; Cytotoxicity, result in words ([2]; listed as sitaxsentan): significantly less cytotoxic to human skin cells than bosentan; Effect on melanin content, result in words [5]: superior to bosentan in reducing the melanin content; also recorded: significantly more effective than a vehicle control at reducing melanin content; also recorded: significantly decreased melanin content; Melanin Content (absorbance at 400 nm) ([5]; 30 μM): 0.471; Melanin Content (absorbance at 400 nm) ([5]; 100 μM): 0.46; Metabolism [6]: hepatic (CYP2C9- and CYP3A4-mediated); Protein binding [7]: > 99%; Selectivity for ET-A compared to ET-B (factor) [8]: 6000

— patent US20210038569A1, “COMPOSITIONS AND METHODS FOR TREATING PIGMENTATION DISORDERS” (Timber Pharmaceuticals, Inc., priority 2018, published 2021)
